# In US20240217968A1, “PHARMACEUTICAL COMPOUND” (DUKE STREET BIO LIMITED, priority 2021, published 2024):
# Molecular target: T1, recombinant human Flag-tagged PARP7 (amino acids 456-657) (Homo sapiens, UniProt Q7Z3E1)
# T1 construct: recombinant human Flag-tagged PARP7 (amino acids 456-657)
# T1 sequence (Q7Z3E1 456-657): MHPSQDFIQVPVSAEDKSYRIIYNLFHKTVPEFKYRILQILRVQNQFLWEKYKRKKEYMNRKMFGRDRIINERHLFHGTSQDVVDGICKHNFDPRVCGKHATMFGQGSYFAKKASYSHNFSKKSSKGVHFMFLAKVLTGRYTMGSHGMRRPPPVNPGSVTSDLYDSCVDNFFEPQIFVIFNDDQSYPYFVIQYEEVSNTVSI
# Test: PARP7 biochemical DELFIA assay (auto-MARylation)
# Conditions: DELFIA readout, IC50 class
# Summary of the method: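 Readout is DELFIA time-resolved Eu fluorescence (Ex337 nm, Em620 nm) of biotin-ADP-ribose on immobilised Flag-tagged PARP7 456-657. Enzyme (12.5-37.5 nM as added) sat 30 min with compound before biotin-NAD+ (15 μM solution, pH 7.5 HEPES buffer) started 2-3 h room-temperature self-modification, stopped with excess NAD+.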
row,Structure (SMILES),IC50
1,O=C(CCOCCc1cccc2c(=O)[nH]ncc12)N1CCC(c2cc(C(F)(F)F)on2)CC1 [Compound 219],100 to 1000 nM
2,CC(C)(COCC(=O)N1CCN(c2ncc(C(F)(F)F)cn2)CC1)Oc1cccc2c(=O)[nH]ncc12 [Compound 34],1000 to 10000 nM
3,O=C(CCOCCn1cnc2c(=O)[nH]ncc21)N1CCN(c2ncc(C(F)(F)F)cn2)CC1 [Compound 51],100 to 1000 nM
4,"CC(COCCC(=O)N1CCN(c2ccc(C#N)cn2)CC1)n1ncc2c(=O)[nH]ncc21 (single isomer, unassigned) [Compound 190]",100 to 1000 nM
5,"CC(COCCC(=O)N1CCN(c2nnc(C(F)(F)F)o2)CC1)n1nc(C(F)(F)F)c2c(=O)[nH]ncc21 (single isomer, unassigned) [Compound 473]",100 to 1000 nM
6,CC(COCCC(=O)N1CCN(c2ncc(C(F)(F)F)cn2)CC1)n1ncc2c(=O)[nH]ncc21 (stereo not shown) [Compound 169],100 to 1000 nM
7,CC(COCCC(=O)N1CCN(c2ncc(C(F)(F)F)cn2)CC1)n1ccc2c(=O)[nH]ncc21 (stereo not shown) [Compound 75],≤ 100 nM
8,N#Cc1ccc(N2CCN(C(=O)CCOCCc3cc(C(F)(F)F)cc4c(=O)[nH]ncc34)CC2)nc1 [Compound 68],100 to 1000 nM
9,CC(COCCn1cc(C(F)(F)F)c2c(=O)[nH]ncc21)C(=O)N1CCN(c2ncc(C(F)(F)F)cn2)CC1 (stereo not shown) [Compound 412],≤ 100 nM
10,CC(COCCC(=O)N1CCN(c2ncc(Cl)cn2)CC1)n1cc(C(F)F)c2c(=O)[nH]ncc21 (stereo not shown) [Compound 451],≤ 100 nM
11,CC(COCCC(=O)N1CCN(c2ncc(C(F)(F)F)cn2)CC1)n1ccc2c(=O)[nH]ncc21 (stereo not shown) [Compound 76],100 to 1000 nM
12,"CC(COCCC(=O)N1CCN(c2ccc(C#N)cn2)CC1)n1cc(C(F)(F)F)c2c(=O)[nH]ncc21 (single isomer, unassigned) [Compound 431]",≤ 100 nM
13,CC1CN(c2ncc(C(F)(F)F)cn2)CCN1C(=O)CCOCCn1nc(C(F)(F)F)c2c(=O)[nH]ncc21 (stereo not shown) [Compound 161],≤ 100 nM
14,N#Cc1ccc(N2CCN(C(=O)CCOCCc3cc(Cl)cc4c(=O)[nH]ncc34)CC2)nc1 [Compound 79],≤ 100 nM
15,Cn1c(=O)n(CCOCCC(=O)N2CCN(c3ncc(C(F)(F)F)cn3)CC2)c2cn[nH]c(=O)c21 [Compound 367],≤ 100 nM
16,O=C(CCOCCc1cccc2c(=O)[nH]cnc12)N1CCN(c2ncc(C(F)(F)F)cn2)CC1 [Compound 16],100 to 1000 nM

row,Structure (SMILES),IC50
1,CC(COCCC(=O)N1CCN(c2ncc(C(F)(F)F)cn2)CC1)n1nc(C(F)(F)F)c2c(=O)[nH]ccc21 (stereo not shown) [Compound 389],≤ 100 nM
2,Cc1cnc(N2CCN(C(=O)CCOCC(C)n3nc(C(F)(F)F)c4c(=O)[nH]ncc43)CC2)nc1 (stereo not shown) [Compound 287],≤ 100 nM
3,CC1CN(c2ncc(C(F)(F)F)cn2)CCN1C(=O)CCOCCn1ncc2c(=O)[nH]ncc21 (stereo not shown) [Compound 143],≤ 100 nM
4,CC(COCCC(=O)N1CCN(c2ccc(C#N)cn2)CC1)c1ccc(Cl)c2c(=O)[nH]ncc12 (stereo not shown) [Compound 417],≤ 100 nM
5,O=C(CCOCCc1ccc(Cl)c2c(=O)[nH]ncc12)N1CCN(c2ncc(C(F)(F)F)cn2)CC1 [Compound 226],≤ 100 nM
6,O=C(CCOCCn1nc(C(F)(F)F)c2c(=O)[nH]ncc21)N1CCN(c2ncc(C(F)(F)F)o2)CC1 [Compound 383],≤ 100 nM
7,O=C(CCOCCn1cc(C(F)(F)F)c2c(=O)[nH]ncc21)N1CCN(c2ccc(Cl)cn2)CC1 [Compound 238],≤ 100 nM
8,O=C(CCOCCn1nc(C(F)(F)F)c2c(=O)[nH]ncc21)N1CCN(c2ncc(C(F)(F)F)[nH]2)CC1 [Compound 488],≤ 100 nM
9,O=C(NCCOCc1cccc2c(=O)[nH]ncc12)C1CCN(c2ncc(C(F)(F)F)cn2)CC1 [Compound 110],100 to 1000 nM
10,CC(COCCC(=O)N1CCN(c2ncc(OC(F)F)cn2)CC1)n1nc(C(F)(F)F)c2c(=O)[nH]ncc21 (stereo not shown) [Compound 293],≤ 100 nM
11,"Cc1cn(CCOCCC(=O)N2CCN(c3ncc(C(F)(F)F)cn3)CC2)c2cn[nH]c(=O)c12 [Compound 74, 3-methyl-1-(2-(3-oxo-3-(4-(5-(trifluoromethyl)pyrimidin-2-yl)piperazin-1-yl)propoxy)ethyl)-1,5-dihydro-4H-pyrrolo[2,3-d]pyridazin-4-one]",≤ 100 nM
12,O=C(CCOCCn1nc(C(F)(F)F)c2c(=O)[nH]ncc21)N1CCN(c2ncc(C(F)(F)F)s2)CC1 [Compound 247],≤ 100 nM
13,CC(COCCC(=O)N1CCN(c2noc(C(F)(F)F)n2)CC1)n1nc(C(F)(F)F)c2c(=O)[nH]ncc21 (stereo not shown) [Compound 345],100 to 1000 nM
14,"CC(COCC(=O)N1CCN(c2ncc(C(F)(F)F)cn2)CC1)Oc1cccc2c(=O)[nH]ncc12 (racemic) [Compound 33, 5-((1-(2-oxo-2-(4-(5-(trifluoromethyl)pyrimidin-2-yl)piperazin-1-yl)ethoxy)propan-2-yl)oxy)phthalazin-1(2H)-one]",100 to 1000 nM
15,CC(CCOCC(=O)N1CCN(c2ncc(C(F)(F)F)cn2)CC1)n1cc(C(F)(F)F)c2c(=O)[nH]ncc21 (stereo not shown) [Compound 454],≤ 100 nM
16,O=C(CCOCCc1cccc2c(=O)[nH]ncc12)N1CCN(c2ncc(C(F)(F)F)cn2)C(CO)C1 (stereo not shown) [Compound 148],≤ 100 nM

# Continued, values first:
row,IC50,Structure (SMILES)
1,≤ 100 nM,"O=C(CCOCCn1c(C(F)(F)F)cc2c(=O)[nH]ncc21)N1CCN(c2ncc(C(F)(F)F)cn2)CC1 [Compound 60, 1-(2-(3-oxo-3-(4-(5-(trifluoromethyl)pyrimidin-2-yl)piperazin-1-yl)propoxy)ethyl)-2-(trifluoromethyl)-1,5-dihydro-4H-pyrrolo[2,3-d]pyridazin-4-one]"
2,≤ 100 nM,CC(COCCC(=O)N1CCN(c2ccc(OC(F)F)cn2)CC1)n1nc(C(F)(F)F)c2c(=O)[nH]ncc21 (stereo not shown) [Compound 275]
3,≤ 100 nM,"CC(COCCC(=O)N1CCN(c2ncc(C3COC3)cn2)CC1)n1nc(C(F)(F)F)c2c(=O)[nH]ncc21 (single isomer, unassigned) [Compound 289]"
4,≤ 100 nM,CC(COCCC(=O)N1CCN(c2ccc(Cl)cn2)CC1)n1nc(C(F)(F)F)c2c(=O)[nH]ncc21 (stereo not shown) [Compound 211]
5,≤ 100 nM,"CC(CCOCC(=O)N1CCN(c2ccc(C#N)cn2)CC1)n1cc(C(F)(F)F)c2c(=O)[nH]ncc21 (single isomer, unassigned) [Compound 494]"
6,≤ 100 nM,N#Cc1cnc(N2CCN(C(=O)CCOCCc3cccc4c(=O)[nH]ncc34)CC2)nc1 [Compound 102]
7,≤ 100 nM,CCC(OCCCC(=O)N1CCN(c2ncc(C(F)(F)F)cn2)CC1)c1cccc2c(=O)[nH]ncc12 (stereo not shown) [Compound 209]
8,≤ 100 nM,Cc1cc(CCOCCC(=O)N2CCN(c3ncc(C(F)(F)F)cn3)CC2)n2c1C(=O)NCC2 [Compound 134]
9,≤ 100 nM,"CC(OCCCC(=O)N1CCN(c2ncc(C(F)(F)F)cn2)CC1)c1cc(F)cc2c(=O)[nH]ncc12 (single isomer, unassigned) [Compound 130]"
10,≤ 100 nM,"CC(COCCC(=O)N1CCN(c2ccc(C3CC3)cn2)CC1)n1nc(C(F)(F)F)c2c(=O)[nH]ncc21 (single isomer, unassigned) [Compound 279]"
11,≤ 100 nM,"CC1Cc2c(cn[nH]c2=O)N(CCOCCC(=O)N2CCN(c3ncc(C(F)(F)F)cn3)CC2)C1 (single isomer, unassigned) [Compound 65, 3-methyl-1-(2-(3-oxo-3-(4-(5-(trifluoromethyl)pyrimidin-2-yl)piperazin-1-yl)propoxy)ethyl)-2,3,4,6-tetrahydropyrido[2,3-d]pyridazin-5(1H)-one]"
12,≤ 100 nM,"CC(COCCC(=O)N1CCN(c2ccc(C3COC3)cn2)CC1)n1nc(C(F)(F)F)c2c(=O)[nH]ncc21 (single isomer, unassigned) [Compound 310]"
13,≤ 100 nM,"CC(OCCCC(=O)N1CCN(c2ncc(C(F)(F)F)cn2)CC1)c1cccc2c(=O)[nH]ncc12 (single isomer, unassigned) [Compound 122]"
14,≤ 100 nM,O=C(CCOCCc1cccc2c(=O)[nH]ncc12)N1CCN(c2ncc3c(n2)NCCC3)CC1 [Compound 220]
15,≤ 100 nM,"CC(COCCC(=O)N1CCN(c2nnc(C(F)(F)F)o2)CC1)n1nc(C(F)(F)F)c2c(=O)[nH]ncc21 (single isomer, unassigned) [Compound 472]"
16,≤ 100 nM,Cc1nn(CCOCCC(=O)N2CCN(c3ncc(C(F)(F)F)cn3)CC2)c2[nH]c(=O)[nH]c(=O)c12 [Compound 402]
17,≤ 100 nM,O=C(CCOCCn1nc(C(F)(F)F)c2c(=O)[nH]ncc21)N1CCN(c2nnc(C(F)(F)F)s2)CC1 [Compound 276]
18,≤ 100 nM,CC(COCCC(=O)N1CCN(c2ncc(C(F)(F)F)cn2)CC1)n1nc(C(F)F)c2c(=O)[nH]ncc21 (stereo not shown) [Compound 435]
19,≤ 100 nM,"CC1CN(C(=O)CCOCCn2nc(C(F)(F)F)c3c(=O)[nH]ncc32)CCN1c1ncc(C(F)(F)F)cn1 (single isomer, unassigned) [Compound 188]"
20,≤ 100 nM,CC1(C)CN(C(=O)CCOCCn2nc(C(F)(F)F)c3c(=O)[nH]ncc32)CCN1c1ccc(C(F)(F)F)cn1 [Compound 173]
21,≤ 100 nM,"CC(COCCC(=O)N1CCN(c2ncc(C(F)(F)F)cn2)CC1)c1cccc2c(=O)[nH]ncc12 (single isomer, unassigned) [Compound 73, 5-(1-(3-oxo-3-(4-(5-(trifluoromethyl)pyrimidin-2-yl)piperazin-1-yl)propoxy)propan-2-yl)phthalazin-1(2H)-one]"
22,≤ 100 nM,"CC(COCCC(=O)N1CCN(c2ncc(C#N)s2)CC1)n1nc(C(F)(F)F)c2c(=O)[nH]ncc21 (single isomer, unassigned) [Compound 284]"
23,≤ 100 nM,O=C(CCOCCn1cc(C(F)F)c2c(=O)[nH]ncc21)N1CCN(c2ccc(C(F)(F)F)cn2)CC1 [Compound 200]
